One test has as its system p140^prototrk. The test can be described thus: NGF-dependent trk tyrosine phosphorylation in SY5Y cells. It counts as cell-based, human. As to conditions: 100 ng/ml NGF for 5 min. From the text:
FIGS. 4A-B show NGF-dependent tyrosine phosphorylation of gp140trk in the human neuroblastoma cell lines LA-N-5, SY5Y, and dorsal root ganglia from mouse embryos. FIG. 4A, gp140trk was immunoprecipitated from untreated (-) or NGF treated (+) LA-N-5 cells (K. H. Sonnenfeld and D. N. Ishii, J. Neurosci. Res. 8:375-391 (1982)), SY5Y cells (K. H. Sonnenfeld and D. N. Ishii, (1982)), NR18 cells (M. A. Bothwell et al., Cell 21:857-866 (1980)), or PC12 cells. Immunoprecipitates were probed with P-tyr antibodies. The differences in trk protein mobilities are due to differences in glycosylation. FIG. 4B, Tyrosine phosphorylation of gp140trk in DRGs from 13.5 day or 14.5 day embryonic mice. DRGs were maintained in 100 ng/ml NGF for ≥10 min prior to lysis and immunoprecipitation with trk antibodies. trk immunoprecipitates were probed with P-tyr antibody. Tyrosine phosphorylated gp140trk from NGF-treated (+) PC12 cells or untreated (-) PC12 cells is shown for comparison. Samples were normalized for cell protein. Molecular weight markers in kDa are indicated.
Cell lines were treated with 100 ng/ml NGF for 5 min and gp140trk immunoprecipitated as in FIG. 1. DRGs were prepared by dissection for 13.5 or 14.5 day mouse embryos. […] Lysates were immunoprecipitated with trk antibody and the trk proteins were analyzed by antiphosphotyrosine immunoblots. […]

A further test deals with gp145^trkB. Kind of test: gp145^trkB tyrosine phosphorylation in trkB-expressing NIH 3T3 cells (pJM8 lines), immunoprecipitation and α-Ptyr Western. It counts as cell-based, rat. The settings on record: pJM8 trkB-expressing NIH 3T3 cells, 100 ng/ml factor, 5 min. Here is the method:
A 4.8 kb cDNA encompassing the coding domain of rat trkB (Middlemas et al., (1991)) was cloned into the pMEX plasmid (pJM8) downstream of the MSV promoter. NIH 3T3 cells were cotransfected with the pJM8 plasmid and a plasmid containing the neomycin phosphotransferase gene (L. F. Parada et al., Nature 312:649-651 (1984)), and G418-resistant colonies were selected. PC12 cells (Greene and Tischler, 1976) were grown in DMEM with 10% horse serum and 5% fetal calf serum. NIH 3T3 cells and the derivative cells lines were maintained in DMEM medium containing 10% calf serum. All cells were maintained in a humidified incubator at 37° C. in 5% CO2.
Approximately 10^7 cells were treated at 37° C. for 5 min with 100 ng/ml growth factors or at the concentrations and lengths of time noted in the text. NP-40 plate lysis and gp145^trkB immunoprecipitation with anti-serum 443 were performed as previously described (Kaplan et al., (1990), (1991)). The phosphotyrosine content was analyzed by Western transfer using monoclonal antibody 4G10 as previously described (Morrison et al., (1989)).
The product of the trk proto-oncogene (gp140^proto-trk) is tyrosine phosphorylated in response to NGF in PC12 cells, NGF-responsive neuroblastoma cells, heterologous fibroblasts and Xenopus oocytes (Kaplan et al., (1991); A. R. Nebreda et al., Science 252:558-560 (1991); Klein et al., (1991)). Next it was examined whether NGF elicited tyrosine phosphorylation of gp145^trkB in trkB-expressing NIH 3T3 cells. Cell line pJM8-3 was treated with high concentrations of NGF (100 ng/ml) for 5 minutes. The cells were lysed, immunoprecipitated with anti-trkB antiserum 443, transferred to nitrocellulose filters and probed with anti-phosphotyrosine (α-Ptyr) antibodies. As a negative control, untransfected NIH-3T3 cells were treated in parallel, while PC12 cells were used as a positive control for NGF responsiveness (Kaplan et al., (1991)).
BDNF and NT-3 are neurotrophic factors that display many functional and structural features that are reminiscent of NGF. The genes encoding BDNF and NT-3 have recently been cloned and used to express high levels of the biologically active factors in pure form (A. Rosenthal et al., Neuron 4:773 (1990)). It was tested whether these NGF-related neurotrophic factors would stimulate phosphorylation of the trkB glycoprotein by exposing the pJM-8 cell lines to 100 ng/ml of NGF, BDNF, or NT-3 (~4 nM) for 5 minutes. The cells were then lysed and the lysates incubated with a trkB anti-peptide antiserum (443) with or without excess peptide. After transfer to nitrocellulose filters, the trkB proteins were probed with an anti-phosphotyrosine (α-ptyr) monoclonal antibody (FIG. 10) (Kaplan et al. (1991)). […] Thus, both neurotrophic factors NT-3 and BDNF can elicit tyrosine phosphorylation of gp145^trkB in a manner similar to that observed for NGF stimulation of the trk receptor. Similar results have been obtained with NT-3 and BDNF in Rat2 cells expressing trkB.
Having detected gp145^trkB phosphorylation in response to BDNF and NT-3, it was next determined whether unrelated polypeptide growth factors were capable of eliciting a similar response. Platelet-derived growth factor (PDGF; 100 ng/ml), epidermal growth factor (EGF; 100 ng/ml), insulin (100 ng/ml), and basic fibroblast growth factor (bFGF; 100 ng/ml), were added independently to exponentially growing cultures of pJM8-3 cells.
The previous studies were done in the presence of high concentrations of neurotrophic factors. Dose response experiments were next performed to determine the range of concentrations at which phosphorylation of the trkB receptor was stimulated by NT-3 or BDNF. Cells were incubated with quantities of NT-3 or BDNF ranging from 0.1 ng/ml to 250 ng/ml and treated as described in FIG. 12. […]

Entries after “also recorded” stand apart in the source; their conditions may differ.

As for “NGF: neurotrophic polypeptide factor, nerve growth factor; ligand of trk proto-oncogene receptor”, the “p140^prototrk tyrosine phosphorylation” value in the test with p140^prototrk is reported as “enhanced”. Besides, the “tyrosine phosphorylation of gp145^trkB” value in the test with gp145^trkB is “no increase in phosphorylation; also recorded: no detectable effect”.

(Values after patent publication US6071709A, “Nerve growth factor/receptor complex” (The United States of America as represented by the …, priority 1992, dated 2000).)
